This is an account of results in patent US20240025857A1, “NEW CATECHOLAMINE PRODRUGS FOR USE IN THE TREATMENT OF PARKINSON'S DISEASE” (H. Lundbeck A/S, priority 2020, published 2024).

Usually Cmax stands for the maximum level reached in the sampled fluid or tissue. For orientation: Tmax means the time at which the peak concentration occurs. The term solubility denotes how much of the substance goes into solution per volume.

Values after ≈ are worked out from the molar mass of the structure shown. Counter-ions that a name gives are not always drawn.

The conditions of data set [1]: male, Han Wistar, rat, in vivo, po.
Experimental: (§1) The tubes were inverted gently 6-8 times to ensure thorough mixing and then placed in wet ice. The collecting tube was placed in wet ice for up to 30 minutes until centrifugation (3000 G for 10 minutes at 4° C.). Once removed from the wet ice the centrifugation was initiated immediately. Immediately after end of centrifugation the samples were returned to wet ice. Two sub-samples of 130 microL plasma were transferred to each of two appropriately labelled cryo tubes containing 6.5 microL pre-cooled formic acid (20% in water v/v) The tube lid was immediately replaced, and the plasma solution was thoroughly mixed by inverting gently 6-8 times. The plasma samples were placed on water-ice as far as possible and stored frozen at nominally −70° C. within 60 minutes after sampling.
(§2) For experiments relating to compounds (II) and (III), the above protocol was used, with the exception that K3EDTA tubes were prepared with stabilizing aqueous solution consisting of 80 microL 100 mg/mL ascorbic acid and 40 microL inhibitor solution containing 100 mg/mL citric acid, 21 mg/mL D-saccharic acid 1,4 lactone and 29 mg/mL tris-(2-carboxyethyl)phosphine (TCEP).
(§3) Plasma samples were analyzed by solid phase extraction or direct protein precipitation followed by UPLC-MS/MS. MS detection using electrospray in the positive ion mode with monitoring of specific mass-to-charge transitions for compound (I) using internal standards for correcting the response. The concentration-time data was analyzed, using standard software using appropriate noncompartmental techniques to obtain estimates of the derived PK parameters.
(§4) Han Wistar rats were supplied by Charles River Laboratories, Sulzfeld, Germany. An artificial, automatically controlled, light and dark cycle of 12 hours was maintained. The rats received a standard laboratory diet from Brogaarden (Altromin 1324 pellets). The rats had unrestricted access to the diet.
(§5) Han Wistar rats were supplied by Charles River Laboratories, UK. An artificial, automatically controlled, light and dark cycle of 12 hours was maintained. The rats received a standard laboratory diet (Teklad 2014C Diet). The rats had unrestricted access to the diet.
A short description of data set [2]: PK experiments in rats: plasma compound (I) after oral dosing of prodrug. The note with it: for conversion to compound (I) in vivo: oral dosing, rats, Example 2.
Experimental: as §1, §2, §3, §4, §5
The format of data set [3] is in vitro ADME, Wistar Han rats. As to conditions: 1 μM, 4 mg/mL protein, 37° C., 0-60 minutes; FIG. 4.
Experimental: The human liver S9 (pool from 50 donors) and the rat liver S9 (from Wistar Han rats, pool of 240) fractions were purchased from SekisuiXenoTech, USA. The protein concentration in the incubation was 4 mg/mL. The incubations were performed in 96-well plates at 37° C. using an automated Hamilton liquid handling system with a total incubation volume of 150 microliter per well. The compounds were each incubated in triplicates in three wells per time point. The liver S9 suspensions were pre-incubated at 37° C. and the reactions started by addition of stock solutions of the test compounds to the incubation wells. The test compounds were dissolved in dimethyl sulfoxide (DMSO) and further diluted in water before spiking the stock solution into the incubation wells. The final DMSO concentration in the incubations was 0.1%. The test compounds were incubated with liver S9 fractions for 0, 5, 10, 15, 30, 45 and 60 minutes. The incubations were terminated by transferring 100 microliter of the incubation samples to a 96-well plate containing 100 microliter of cold (approximately +4° C.) stop reagent containing 2% formic acid, 20 mg/mL ascorbic acid, 10 mg/mL citric acid and 3 mg/mL TCEP (tris(2-carboxyethyl)phosphine). After mixing, the samples were transferred to Nunc 1.0 mL cryo tubes and immediately frozen at −80° C. until analysis. Concentrations of compound (I) were determined after solid-phase extraction of the samples followed by LC-MS/MS analysis. The increase in concentration of compound (I) at the different time points was calculated by subtracting the concentration of compound (I) in the sample taken at time 0 from the concentrations of compound (I) in samples taken at the different time points.
Mass spectrometer (LC-MS/MS) Waters Acquity-Waters Xevo TQ-S. Analytical column Acquity BEH C18 50×2.1 mm, 1.7 micrometer. Mobile phase A: 0.2% formic acid in 20 mM NH4-Formate. Mobile phase B: 0.2% formic acid in acetonitrile. Gradient run from 5% B to 95% B in 3.5 minutes. Flow rate 0.6 mL/min. […]
Data set [4] can be described thus: physchem. It is filed as physicochemical. As to conditions: aqueous buffer, thermodynamic from solid; 25 mM phosphate buffer pH 6, 24 hours rotation, saturated solution; read-out: Measured solubility at pH 6. How it is done:
For compound (III), a sample was prepared with excess compound (III) to establish a saturated solution. 4.2 mg of compound (III) was transferred to a vial and 0.5 mL buffer (25 mM phosphate buffer, NaH2PO4/Na2HPO4, pH 6) was added. The sample was mixed by rotation for 24 hours. pH of the sample was measured at t=0 (prior to rotation) and at t=24 h (after 24 h of rotation). Subsequently, some of the sample was filtered with 0.22 micrometer polyvinylidene difluoride filter, first few drops discarded, and content of dissolved compound (III) was quantified by reverse phased HPLC (C18, 3.5 micrometer, 4.6×150 mm column) with eluent 20 mM ammonium buffer pH 2.4 with methanol, 80:20.
The remaining undissolved material was extracted, and air dried for approximately 20 minutes on a metal plate prior to analysis by X-ray powder diffractogram (XRPD). XRPD diffractograms were obtained on a PANalytical X'Pert PRO X-Ray Diffractometer using CuKa1 radiation (λ=1.5406 Å). The samples were measured in reflection mode in the 2θ-range 3-39.9° using an X'celerator detector.

Data set [5] in a line: Conversion to compound (I) in human liver S9. It is filed as in vitro ADME. As to conditions: 1 μM, 4 mg/mL protein, 37° C., 0-60 minutes; compared to (Id-iia) and (Id-iib); FIG. 3. How it is done:
The compounds (II), (III), (Id-iia), and (Id-iib) were incubated separately at 1 μM with rat and human liver S9 fraction suspended in 50 mM phosphate buffer at pH 7.4 with 5 mM MgCl2, 200 U/mL superoxide dismutase and 1 mM ascorbic acid. The human liver S9 (pool from 50 donors) and the rat liver S9 (from Wistar Han rats, pool of 240) fractions were purchased from SekisuiXenoTech, USA. The protein concentration in the incubation was 4 mg/mL. The incubations were performed in 96-well plates at 37° C. using an automated Hamilton liquid handling system with a total incubation volume of 150 microliter per well. The compounds were each incubated in triplicates in three wells per time point. The liver S9 suspensions were pre-incubated at 37° C. and the reactions started by addition of stock solutions of the test compounds to the incubation wells. The test compounds were dissolved in dimethyl sulfoxide (DMSO) and further diluted in water before spiking the stock solution into the incubation wells. […] Concentrations of compound (I) were determined after solid-phase extraction of the samples followed by LC-MS/MS analysis. The increase in concentration of compound (I) at the different time points was calculated by subtracting the concentration of compound (I) in the sample taken at time 0 from the concentrations of compound (I) in samples taken at the different time points. […]

For data set [6] the following is noted: in man after oral dosing; extensive hepatic first-pass metabolism; cited from earlier work.

Consider `CCCN1CCC[C@@H]2CC3=C(CCCC3=O)C[C@H]21` [Compound (Ia)], for which, in data set [1], the AUC0-24 is 13.6 ng·h/mL and the maximum concentration (Cmax) was 3.16 ng/mL. Besides, the time to peak (Tmax) in data set [1] (0.3 mg/kg) turned out to be 1.0 h. The “Exposure at 24 h” value in data set [1] (24 h) amounted to 48 ± 26 pg/mL.

For the molecule `CCCN1CCC[C@@H]2Cc3c(ccc(OC(=O)C(C)(C)C)c3OC(=O)C(C)(C)C)C[C@H]21` [(Ic)], in data set [2] (oral administration of the prodrug, Wistar rats, in words), the “plasma concentrations of compound (I)” value is reported as “extremely low”.

As for `CCCN1CCC[C@@H]2Cc3c(ccc(OS(=O)(=O)O)c3O)C[C@H]21` [Compound (Id-iib), (4aR,10aR)-6-hydroxy-1-propyl-1,2,3,4,4a,5,10,10a-octahydrobenzo[g]quinolin-7-yl hydrogen sulfate], the “conversion to compound (I) in rat liver S9” value (“conversion … in rat liver S9” below) in data set [3] was “is converted to compound (I)”. Besides, the solubility at 24 h in data set [4] is 37 µg/mL.

Consider `CCCN1CCC[C@@H]2Cc3c(ccc(O)c3OS(N)(=O)=O)C[C@H]21` [Compound (III), (4aR,10aR)-7-hydroxy-1-propyl-1,2,3,4,4a,5,10,10a-octahydrobenzo[g]quinolin-6-yl sulfamate], for which the “conversion to compound (I) in human liver S9 fraction” value in data set [5] is reported as “increased conversion to compound (I)”. Also, the “conversion … in rat liver S9” value in data set [3] is on record as “is converted to compound (I)”. In addition, the solubility at 24 h in data set [4] worked out at 890 µg/mL (≈ 2610 µM). The “conversion to compound (I) in vivo” value in data set [2] is given as “converted to compound (I) in vivo”.

Turning to `CCCN1CCC[C@@H]2Cc3c(ccc(OS(N)(=O)=O)c3O)C[C@H]21` [Compound (II), (4aR,10aR)-6-hydroxy-1-propyl-1,2,3,4,4a,5,10,10a-octahydrobenzo[g]quinolin-7-yl sulfamate], in data set [5], the “conversion to compound (I) in human liver S9 fraction” value is recorded as “increased conversion to compound (I)”. In addition, the “conversion … in rat liver S9” value in data set [3] is listed as “is converted to compound (I)”. Moreover, the “conversion to compound (I) in vivo” value in data set [2] is on record as “converted to compound (I) in vivo”.

Regarding `CCCc1cc2c(s1)CN[C@@H]1CCc3cc(OC(C)=O)c(OC(C)=O)cc3[C@@H]21` [Adrogolide], the oral bioavailability in data set [6] is listed as roughly 4%.
